Patent publication US20240391965A1, “STAPLED ANTIMICROBIAL PEPTIDES (STAMPS) AND USES THEREOF” (Lytica Therapeutics, Inc., priority 2021, published 2024)
Converted amounts (≈) assume the structure as drawn. Starred links: 1 amine or outer side, 2 acyl side, 3 side chain; linkers in the order of their positions; H or OH if unused. Positions of bridges follow the written chain, without caps; N, C: chain ends. Residues, ends and D or L forms follow the SMILES beside them. Naphthalene(2,6-diCH2) = c1cc2cc(C[*:2])ccc2cc1C[*:1]; mXylylene = c1cc(C[*:1])cc(C[*:2])c1; pXylylene = c1cc(C[*:2])ccc1C[*:1]; X1 = C(=CC[*:2])C[*:1]

Key:
[1] = test system: Acinetobacter baumannii (A. baumannii); type: cell-based; settings: microbroth dilution, 20-24 hours at 37° C.
Method in brief: (§1)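 Minimum inhibitory concentrations come from a CLSI-adapted broth microdilution. Cells grew in Mueller-Hinton or cation-adjusted Mueller-Hinton broth, were exposed to peptide dilutions at 5×10^5 CFU/ml, and were read by eye after 20-24 h at 37 °C.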

[2] = test system: Escherichia coli (E. coli); type: cell-based; settings: microbroth dilution, 20-24 hours at 37° C.
Method in brief: as §1

[3] = test system: Klebsiella pneumoniae (K. pneumoniae); type: cell-based; settings: microbroth dilution, 20-24 hours at 37° C.
Method in brief: as §1

[4] = test system: Pseudomonas aeruginosa (P. aeruginosa); type: cell-based; settings: microbroth dilution, 20-24 hours at 37° C.
Method in brief: as §1

[5] = test system: Staphylococcus aureus (S. aureus); type: cell-based; settings: microbroth dilution, 20-24 hours at 37° C.
Method in brief: as §1

[6] = 90 minute cytotoxicity assay (LDH release), renal toxicity; type: cell-based; settings: 90 minutes of incubation, LDH release; read-out: Inhibitory Concentration at 50% Cytotoxicity (IC50) Human Renal Proximal Tubule Epithelial Cells (RPTEC)
Method in brief: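 RPTEC plated overnight, given fresh medium, then exposed to serial peptide dilutions or vehicle for 90 min at 37° C. Medium LDH measured by 10 min reagent incubation and absorbance at 490 nm.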

[7] = 48 hours cytotoxicity assay (CellTiter-Glo), liver toxicity; type: cell-based, human; settings: 48 hours of incubation, CellTiter-Glo; read-out: Inhibitory Concentration at 50% Cytotoxicity (IC50) Human Liver Cells (HepG2)
Method in brief: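 HepG2 cells in EMEM with 10% FBS, allowed to attach 4 h, then exposed to serially diluted StAMPs or vehicle for 48 h at 37 °C. Viability read by CellTiter-Glo luminescence.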

Row | SMILES | Minimum Inhibitory Concentration (MIC) A. baumannii [1] | Minimum Inhibitory Concentration (MIC) E. coli [2] | Minimum Inhibitory Concentration (MIC) K. pneumoniae [3] | Minimum Inhibitory Concentration (MIC) P. aeruginosa [4] | Minimum Inhibitory Concentration (MIC) S. aureus [5] | IC50 [6] | IC50 [7]
1 | CC[C@H](C)[C@H](NC(=O)[C@H](CC(C)C)NC(=O)[C@H](CC(C)C)NC(=O)[C@H](CC(N)=O)NC(=O)[C@H](CCCCN)NC(=O)[C@@H](NC(=O)[C@H](CCCCN)NC(=O)[C@H](CCCCN)NC(=O)[C@@H]1CSCc2ccc3cc(ccc3c2)CSC[C@H](N)C(=O)N[C@@H]([C@@H](C)CC)C(=O)N[C@@H](Cc2ccccc2)C(=O)N[C@@H](CO)C(=O)N[C@@H](CCCCN)C(=O)N[C@@H](CC(C)C)C(=O)N[C@@H](C)C(=O)N1)[C@@H](C)CC)C(=O)N[C@@H](CO)C(=O)NCC(=O)N[C@@H](CC(C)C)C(=O)N[C@@H](CCCCN)C(=O)NCC(N)=O [compound 50] (H-CIFSKLACKKIKNLLISGLKG-NH2; linker 1-8 via Naphthalene(2,6-diCH2); N-terminus assumed) | 8 µg/mL | 16 µg/mL | 32 µg/mL | >64 µg/mL | 64 µg/mL | 17 µg/mL (≈ 7 µM) | 103 µg/mL (≈ 42.4 µM)
2 | CC[C@H](C)[C@H](NC(=O)CN)C(=O)N[C@@H](Cc1ccccc1)C(=O)N[C@@H](CO)C(=O)N[C@@H](CCCCN)C(=O)N[C@@H](CC(C)C)C(=O)N[C@@H](C)C(=O)NCC(=O)N[C@@H](CCCCN)C(=O)N[C@@H](CCCCN)C(=O)N[C@H](C(=O)N[C@@H](CCCCN)C(=O)N[C@@H](CC(N)=O)C(=O)N[C@@H](CC(C)C)C(=O)N[C@H]1CSCC=CCSC[C@@H](C(=O)N[C@@H](CCCCN)C(=O)NCC(N)=O)NC(=O)CNC(=O)[C@H](CO)NC(=O)[C@H]([C@@H](C)CC)NC1=O)[C@@H](C)CC [compound 31] (H-GIFSKLAGKKIKNLCISGCKG-NH2; linker 15-19 via X1) | >64 µg/mL | >64 µg/mL | >64 µg/mL | >64 µg/mL | >64 µg/mL | > 200 µg/mL | > 200 µg/mL
3 | CC[C@H](C)[C@H](NC(=O)CN)C(=O)N[C@@H](Cc1ccccc1)C(=O)N[C@@H](CO)C(=O)N[C@@H](CCCCN)C(=O)N[C@@H](CC(C)C)C(=O)N[C@H]1CSCc2ccc(cc2)CSC[C@@H](C(=O)N[C@@H](CCCCN)C(=O)N[C@@H](CC(N)=O)C(=O)N[C@@H](CC(C)C)C(=O)N[C@@H](CC(C)C)C(=O)N[C@H](C(=O)N[C@@H](CO)C(=O)NCC(=O)N[C@@H](CC(C)C)C(=O)N[C@@H](CCCCN)C(=O)NCC(N)=O)[C@@H](C)CC)NC(=O)[C@H](CCCCN)NC(=O)[C@H](CCCCN)NC(=O)CNC1=O [compound 3] (H-GIFSKLCGKKCKNLLISGLKG-NH2; linker 7-11 via pXylylene) | 2 µg/mL | 2 µg/mL | 16 µg/mL | 8 µg/mL | >64 µg/mL | 79 µg/mL (≈ 34.2 µM) | 86 µg/mL (≈ 37.2 µM)
4 | CC[C@H](C)[C@H](NC(=O)CN)C(=O)N[C@@H](Cc1ccccc1)C(=O)N[C@@H](CO)C(=O)N[C@@H](CCCCN)C(=O)N[C@@H](CC(C)C)C(=O)N[C@@H](C)C(=O)N[C@H]1CSCc2cccc(c2)CSC[C@@H](C(=O)N[C@@H](CC(N)=O)C(=O)N[C@@H](CC(C)C)C(=O)N[C@@H](CC(C)C)C(=O)N[C@H](C(=O)N[C@@H](CO)C(=O)NCC(=O)N[C@@H](CC(C)C)C(=O)N[C@@H](CCCCN)C(=O)NCC(N)=O)[C@@H](C)CC)NC(=O)[C@H]([C@@H](C)CC)NC(=O)[C@H](CCCCN)NC(=O)[C@H](CCCCN)NC1=O [compound 10] (H-GIFSKLACKKICNLLISGLKG-NH2; linker 8-12 via mXylylene) | 4 µg/mL | 4 µg/mL | 8 µg/mL | 16 µg/mL | 32 µg/mL | 17 µg/mL (≈ 7.37 µM) | 18 µg/mL (≈ 7.8 µM)
5 | CC[C@H](C)[C@H](NC(=O)[C@H](CC(C)C)NC(=O)[C@H](CC(C)C)NC(=O)[C@H](CC(N)=O)NC(=O)[C@H](CCCCN)NC(=O)[C@@H](NC(=O)[C@H](CCCCN)NC(=O)[C@@H]1CSCc2ccc3cc(ccc3c2)CSC[C@H](NC(=O)CN)C(=O)N[C@@H](Cc2ccccc2)C(=O)N[C@@H](CO)C(=O)N[C@@H](CCCCN)C(=O)N[C@@H](CC(C)C)C(=O)N[C@@H](C)C(=O)NCC(=O)N1)[C@@H](C)CC)C(=O)N[C@@H](CO)C(=O)NCC(=O)N[C@@H](CC(C)C)C(=O)N[C@@H](CCCCN)C(=O)NCC(N)=O [compound 52] (H-GCFSKLAGCKIKNLLISGLKG-NH2; linker 2-9 via Naphthalene(2,6-diCH2); N-terminus assumed) | 32 µg/mL | 32 µg/mL | >64 µg/mL | >64 µg/mL | >64 µg/mL | > 200 µg/mL | 10 µg/mL (≈ 4.34 µM)
6 | CC[C@H](C)[C@H](NC(=O)CN)C(=O)N[C@@H](Cc1ccccc1)C(=O)N[C@@H](CO)C(=O)N[C@@H](CCCCN)C(=O)N[C@@H](CC(C)C)C(=O)N[C@@H](C)C(=O)N[C@H]1CSCC=CCSC[C@@H](C(=O)N[C@@H](CC(N)=O)C(=O)N[C@@H](CC(C)C)C(=O)N[C@@H](CC(C)C)C(=O)N[C@H](C(=O)N[C@@H](CO)C(=O)NCC(=O)N[C@@H](CC(C)C)C(=O)N[C@@H](CCCCN)C(=O)NCC(N)=O)[C@@H](C)CC)NC(=O)[C@H]([C@@H](C)CC)NC(=O)[C@H](CCCCN)NC(=O)[C@H](CCCCN)NC1=O [compound 12] (H-GIFSKLACKKICNLLISGLKG-NH2; linker 8-12 via X1) | 4 µg/mL | 4 µg/mL | 16 µg/mL | 16 µg/mL | >64 µg/mL | 70 µg/mL (≈ 31 µM) | 50 µg/mL (≈ 22.1 µM)
7 | CC[C@H](C)[C@H](NC(=O)CN)C(=O)N[C@@H](Cc1ccccc1)C(=O)N[C@@H](CO)C(=O)N[C@@H](CCCCN)C(=O)N[C@@H](CC(C)C)C(=O)N[C@H]1CSCc2cccc(c2)CSC[C@@H](C(=O)N[C@@H](CCCCN)C(=O)N[C@@H](CC(N)=O)C(=O)N[C@@H](CC(C)C)C(=O)N[C@@H](CC(C)C)C(=O)N[C@H](C(=O)N[C@@H](CO)C(=O)NCC(=O)N[C@@H](CC(C)C)C(=O)N[C@@H](CCCCN)C(=O)NCC(N)=O)[C@@H](C)CC)NC(=O)[C@H](CCCCN)NC(=O)[C@H](CCCCN)NC(=O)CNC1=O [compound 2] (H-GIFSKLCGKKCKNLLISGLKG-NH2; linker 7-11 via mXylylene) | 4 µg/mL | 2 µg/mL | 16 µg/mL | 8 µg/mL | >64 µg/mL | 101 µg/mL (≈ 43.7 µM) | 97 µg/mL (≈ 42 µM)
8 | CC[C@H](C)[C@H](NC(=O)CN)C(=O)N[C@@H](Cc1ccccc1)C(=O)N[C@@H](CO)C(=O)N[C@@H](CCCCN)C(=O)N[C@@H](CC(C)C)C(=O)N[C@@H](C)C(=O)NCC(=O)N[C@@H](CCCCN)C(=O)N[C@H]1CSCC=CCSC[C@@H](C(=O)N[C@@H](CC(C)C)C(=O)N[C@H](C(=O)N[C@@H](CO)C(=O)NCC(=O)N[C@@H](CC(C)C)C(=O)N[C@@H](CCCCN)C(=O)NCC(N)=O)[C@@H](C)CC)NC(=O)[C@H](CC(N)=O)NC(=O)[C@H](CCCCN)NC(=O)[C@H]([C@@H](C)CC)NC1=O [compound 16] (H-GIFSKLAGKCIKNCLISGLKG-NH2; linker 10-14 via X1) | 64 µg/mL | 32 µg/mL | >64 µg/mL | >64 µg/mL | >64 µg/mL | > 200 µg/mL | > 200 µg/mL
